“Also recorded” adds a separate entry of the source.
Tests used:
[1] = biological target: T1, Type II GnRHR (Callithrix jacchus, UniProt Q95MG6); experiment: Binding affinity for Type II GnRHR (data not shown)
T1 sequence (Q95MG6 1-380): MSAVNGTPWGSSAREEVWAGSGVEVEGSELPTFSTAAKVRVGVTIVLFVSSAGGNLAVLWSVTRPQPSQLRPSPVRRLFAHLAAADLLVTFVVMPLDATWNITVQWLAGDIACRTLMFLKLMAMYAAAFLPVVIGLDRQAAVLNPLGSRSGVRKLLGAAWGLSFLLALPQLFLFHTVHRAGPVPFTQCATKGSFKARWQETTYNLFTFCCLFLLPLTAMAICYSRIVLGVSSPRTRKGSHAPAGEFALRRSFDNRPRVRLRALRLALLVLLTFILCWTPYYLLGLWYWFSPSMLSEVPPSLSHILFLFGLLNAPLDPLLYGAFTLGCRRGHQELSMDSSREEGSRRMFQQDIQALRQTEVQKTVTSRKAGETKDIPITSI

[2] = system: Type I GnRHR; experiment: Binding affinity for Type I GnRHR (data not shown)
[3] = system: Gαi-type G protein; experiment: Inhibition of forskolin-stimulated cAMP accumulation in JEG-3 cells; type: cell-based, human; conditions: for FSK-stimulated intracellular cAMP accumulation after ligand pre-exposure: 100 nM, pre-exposure 10, 30, 60 minutes; for effect of PTX on ligand-mediated inhibition of FSK-stimulated cAMP accumulation: 60 minute pre-exposure, PTX 200 ng/ml 16 h
Excerpt: In both BPH-1 and JEG-3 cells GnRH and Ant 135-25 can antagonize forskolin (FSK) stimulated intracellular cAMP accumulation. Panels a and b respectively depict the effects of FSK, GnRH I and Ant 135-25 upon intracellular levels of cAMP in BPH-1 and JEG-3 cells measured using a calorimetric Biomol cAMP assay kit. […] Each histogram in panels a to d depicts the mean±s.e. mean of three to four experimental replicates of the cAMP accumulation assay.
Thus we noted that when cyclic adenosine monophosphate levels (cAMP) were measured using a commercially available […] assay system (Biomol) the ability of forskolin (1 μM in JEG-3 and 3 μM in BPH-1, sufficient to give a 50% Rmax response in each case) was blunted with extended cellular pre-treatment times (10 to 60 minutes) with either 100 nM GnRH I or Ant 135-25 (FIG. 9, panel a-BPH, panel b-JEG). […] Therefore it appears that both ligands can efficiently activate the adenylate cyclase inhibitory activity of Gαi in both cell models tested.

[4] = system: Type II GnRHRs cloned from several species; conditions: Ott et al (2002); cited from earlier work
[5] = system: caspase 3 and procaspase 3; experiment: Caspase 3 / procaspase 3 immunoblot of BPH-1 whole cell lysates; type: cell-based, human; conditions: BPH-1 cells, continuous stimulation, time course
Protocol: (§1) All twelve panels depict either phase contrast (1, 4, 7, 10), confocal laser microscope (2, 5, 8, 11) or phase contrast/confocal merged images (3, 6, 9, 12). Panels 1 to 3 depict untreated control JEG-3 cells for cells in panels 4 to 6 which have been treated with GnRH I (100 nM) for 24 h. All cells have been exposed while live to an annexin V recombinant protein conjugated to the FITC fluorophore. The annexin V will bind specifically only to phosphatidlyserine (PS) lipids usually only expressed on the intracellular side of the plasma membrane lipid bilayer. An early sign of apoptosis is the translocation of these PS lipids from the intracellular side of the membrane to the outer aspect of the bilayer. […] The cellular levels of caspase 3 and procaspase 3 were assessed by specific immunoblotting of JEG-3 or BPH-1 whole cell (w-c) lysates from cells stimulated continuously with GnRH I for the times depicted.
(§2) Thus we have shown that upon continuous GnRH ligand stimulation of either JEG-3 or BPH-1 there is a retardation of cell growth, however we were interested as to whether there was any genuine induction of cellular apoptosis recently reported to occur in several tumour cell lines (Soon et al (2002) J. Clin. Endocrinol. Metab. 87, 4580-4586). […] Initially we measured the effects of GnRH stimulation upon the ultrastructural integrity of the cells plasma membrane. […]

[6] = system: caspase 3 and procaspase 3; experiment: Caspase 3 / procaspase 3 immunoblot of JEG-3 whole cell lysates; type: cell-based, human; conditions: JEG-3 cells, 100 nM continuously, time course
Protocol: as §1, §2

Row | binding affinity for Type II GnRHR [1] | binding affinity for Type I GnRHR [2] | Substance | FSK-stimulated intracellular cAMP accumulation after ligand pre-exposure [3] | effect of PTX on ligand-mediated inhibition of FSK-stimulated cAMP accumulation [3] | partial agonistic activity upon Type II GnRHRs cloned from several species [4] | cellular levels of pro-caspase 3 and cleaved caspase-3 [5] | cellular level of cleaved (active) caspase-3 [6] | cellular level of pro-caspase 3 [6]
1 | high binding affinity | high binding affinity | Ac-D-Nal(2)-D-4-ClPhe-D-Pal-Ser-1-MePal-D-IsopropylLys-Leu-IsopropylLys-Pro-D-AlaNH2 [Ant 135-25] | significantly reduced; also recorded: blunted | can be specifically inhibited with a 16 h pre-incubation of the cells with 200 ng/ml of PTX; also recorded: attenuated by a 16 h pre-treatment with 200 ng/ml PTX |  |  |  | 
2 |  |  | Ac-D-Nal(2)-D-4-ClPhe-D-Pal-Ser-Ile-D-IsopropylLys-Leu-IsopropylLys-Pro-D -AlaNH2 [Ant 135-18] |  |  | high degree of partial agonistic activity |  |  | 
3 |  |  | GnRH I: Gonadotropin-Releasing Hormone, a decapeptide; the original form of GnRH, re-named GnRH I | significantly reduced; also recorded: blunted | can be specifically inhibited with a 16 h pre-incubation of the cells with 200 ng/ml of PTX; also recorded: attenuated by a 16 h pre-treatment with 200 ng/ml PTX |  | enhanced expression of the pro-apoptotic proteases cleaved-caspase 3 and procaspase 3; also recorded: more rapid onset on the generation of cleaved caspase-3 | enhanced expression of the pro-apoptotic proteases cleaved-caspase 3 and procaspase 3; also recorded: only significantly evident between 48-72 h | enhanced expression of the pro-apoptotic proteases cleaved-caspase 3 and procaspase 3; also recorded: significant elevation in the cellular levels of pro-caspase 3 evident from 24-48 h
